From PubChem BioAssay (NCI)
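In this assay, cells in 96-well plates receive the compound at five concentrations for 48 hours. Endpoints are linearly interpolated between the surrounding concentrations. TGI is the concentration that stops growth completely.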

Columns and labels:
Assay in all cases: NCI-60 cell line screen, 48 h
786-0 renal = test system: 786-0 renal
A498 renal = test system: A498 renal
A549 NSCLC = test system: A549 NSCLC
ACHN renal = test system: ACHN renal
CAKI-1 renal = test system: CAKI-1 renal
CCRF-CEM leukemia = test system: CCRF-CEM leukemia
COLO 205 colon = test system: COLO 205 colon
DLD-1 colon = test system: DLD-1 colon
DMS 114 small cell lung = test system: DMS 114 small cell lung
DMS 273 small cell lung = test system: DMS 273 small cell lung
EKVX NSCLC = test system: EKVX NSCLC
HCC-2998 colon = test system: HCC-2998 colon
HCT-116 colon = test system: HCT-116 colon
HCT-15 colon = test system: HCT-15 colon
HL-60(TB) leukemia = test system: HL-60(TB) leukemia
HOP-18 NSCLC = test system: HOP-18 NSCLC
HOP-62 NSCLC = test system: HOP-62 NSCLC
HOP-92 NSCLC = test system: HOP-92 NSCLC
HT29 colon = test system: HT29 colon
IGROV1 ovarian = test system: IGROV1 ovarian
K-562 leukemia = test system: K-562 leukemia
KM12 colon = test system: KM12 colon
KM20L2 colon = test system: KM20L2 colon
LOX IMVI melanoma = test system: LOX IMVI melanoma
LXFL 529 NSCLC = test system: LXFL 529 NSCLC
M14 melanoma = test system: M14 melanoma
M19-MEL melanoma = test system: M19-MEL melanoma
MALME-3M melanoma = test system: MALME-3M melanoma
MOLT-4 leukemia = test system: MOLT-4 leukemia
NCI-H226 lung = test system: NCI-H226 lung
NCI-H23 lung = test system: NCI-H23 lung
NCI-H460 lung = test system: NCI-H460 lung
NCI-H522 lung = test system: NCI-H522 lung
OVCAR-3 ovarian = test system: OVCAR-3 ovarian
OVCAR-4 ovarian = test system: OVCAR-4 ovarian
OVCAR-5 ovarian = test system: OVCAR-5 ovarian
OVCAR-8 ovarian = test system: OVCAR-8 ovarian
RPMI-8226 leukemia = test system: RPMI-8226 leukemia
RXF 393 renal = test system: RXF 393 renal
SF-268 CNS = test system: SF-268 CNS
SF-295 CNS = test system: SF-295 CNS
SF-539 CNS = test system: SF-539 CNS
SK-MEL-2 melanoma = test system: SK-MEL-2 melanoma
SK-MEL-28 melanoma = test system: SK-MEL-28 melanoma
SK-MEL-5 melanoma = test system: SK-MEL-5 melanoma
SK-OV-3 ovarian = test system: SK-OV-3 ovarian
SN12C renal = test system: SN12C renal
SNB-19 CNS = test system: SNB-19 CNS
SNB-78 CNS = test system: SNB-78 CNS
SR leukemia = test system: SR leukemia
SW-620 colon = test system: SW-620 colon
TK-10 renal = test system: TK-10 renal
U251 CNS = test system: U251 CNS
UACC-257 melanoma = test system: UACC-257 melanoma
UACC-62 melanoma = test system: UACC-62 melanoma
UO-31 renal = test system: UO-31 renal
XF 498 CNS = test system: XF 498 CNS
SNB-75 CNS = test system: SNB-75 CNS

SMILES: COc1cc2c(c(OC(C)=O)c1OC(C)=O)-c1ccc(SC)c(=O)cc1C(NC(C)=O)CC2 (stereo unspecified)
- TGI (786-0 renal): > 100 µM
- TGI (A498 renal): 56.7 µM
- TGI (A549 NSCLC): > 100 µM
- TGI (ACHN renal): > 100 µM
- TGI (CAKI-1 renal): > 100 µM
- TGI (CCRF-CEM leukemia): 35.7 µM
- TGI (COLO 205 colon): 3.13 µM
- TGI (DLD-1 colon): > 100 µM
- TGI (DMS 114 small cell lung): 6.11 µM
- TGI (DMS 273 small cell lung): > 100 µM
- TGI (EKVX NSCLC): > 100 µM
- TGI (HCC-2998 colon): > 100 µM
- TGI (HCT-116 colon): 17.5 µM
- TGI (HCT-15 colon): > 100 µM
- TGI (HL-60(TB) leukemia): 1.34 µM
- TGI (HOP-18 NSCLC): > 100 µM
- TGI (HOP-62 NSCLC): > 75.5 µM
- TGI (HOP-92 NSCLC): 7.29 µM
- TGI (HT29 colon): > 44.8 µM
- TGI (IGROV1 ovarian): > 100 µM
- TGI (K-562 leukemia): 36.3 µM
- TGI (KM12 colon): 12 µM
- TGI (KM20L2 colon): 10.4 µM
- TGI (LOX IMVI melanoma): > 100 µM
- TGI (LXFL 529 NSCLC): > 82.3 µM
- TGI (M14 melanoma): > 69.1 µM
- TGI (M19-MEL melanoma): > 73.5 µM
- TGI (MALME-3M melanoma): > 100 µM
- TGI (MOLT-4 leukemia): > 100 µM
- TGI (NCI-H226 lung): 15.1 µM
- TGI (NCI-H23 lung): 31.4 µM
- TGI (NCI-H460 lung): 20 µM
- TGI (NCI-H522 lung): 1.2 µM
- TGI (OVCAR-3 ovarian): 2.43 µM
- TGI (OVCAR-4 ovarian): > 100 µM
- TGI (OVCAR-5 ovarian): > 100 µM
- TGI (OVCAR-8 ovarian): 55.1 µM
- TGI (RPMI-8226 leukemia): > 100 µM
- TGI (RXF 393 renal): > 100 µM
- TGI (SF-268 CNS): > 100 µM
- TGI (SF-295 CNS): 10.1 µM
- TGI (SF-539 CNS): 1.64 µM
- TGI (SK-MEL-2 melanoma): 7.07 µM
- TGI (SK-MEL-28 melanoma): > 100 µM
- TGI (SK-MEL-5 melanoma): 3.46 µM
- TGI (SK-OV-3 ovarian): > 36 µM
- TGI (SN12C renal): > 100 µM
- TGI (SNB-19 CNS): > 100 µM
- TGI (SNB-78 CNS): > 100 µM
- TGI (SR leukemia): > 100 µM
- TGI (SW-620 colon): > 100 µM
- TGI (TK-10 renal): > 100 µM
- TGI (U251 CNS): > 32 µM
- TGI (UACC-257 melanoma): > 100 µM
- TGI (UACC-62 melanoma): > 100 µM
- TGI (UO-31 renal): > 100 µM
- TGI (XF 498 CNS): 42.4 µM

SMILES: O=C1C2ON3c4ccccc4C(=O)C3(c3ccccc3)C2C(=O)N1c1ccccc1 (stereo unspecified)
- TGI (786-0 renal): > 100 µM
- TGI (A498 renal): > 100 µM
- TGI (A549 NSCLC): > 100 µM
- TGI (ACHN renal): > 100 µM
- TGI (CCRF-CEM leukemia): > 100 µM
- TGI (COLO 205 colon): > 100 µM
- TGI (DLD-1 colon): > 100 µM
- TGI (DMS 273 small cell lung): > 100 µM
- TGI (EKVX NSCLC): > 100 µM
- TGI (HCC-2998 colon): > 100 µM
- TGI (HCT-116 colon): > 100 µM
- TGI (HCT-15 colon): > 100 µM
- TGI (HL-60(TB) leukemia): > 100 µM
- TGI (HOP-18 NSCLC): > 100 µM
- TGI (HOP-62 NSCLC): > 100 µM
- TGI (HOP-92 NSCLC): > 100 µM
- TGI (HT29 colon): > 100 µM
- TGI (IGROV1 ovarian): > 100 µM
- TGI (K-562 leukemia): > 100 µM
- TGI (KM20L2 colon): > 100 µM
- TGI (LXFL 529 NSCLC): > 100 µM
- TGI (M14 melanoma): > 100 µM
- TGI (M19-MEL melanoma): > 100 µM
- TGI (MALME-3M melanoma): > 100 µM
- TGI (MOLT-4 leukemia): > 100 µM
- TGI (NCI-H226 lung): > 100 µM
- TGI (NCI-H23 lung): > 100 µM
- TGI (NCI-H522 lung): > 100 µM
- TGI (OVCAR-4 ovarian): > 100 µM
- TGI (OVCAR-8 ovarian): > 100 µM
- TGI (RPMI-8226 leukemia): > 100 µM
- TGI (RXF 393 renal): > 100 µM
- TGI (SF-268 CNS): > 100 µM
- TGI (SF-295 CNS): > 100 µM
- TGI (SF-539 CNS): > 100 µM
- TGI (SK-MEL-28 melanoma): > 100 µM
- TGI (SK-MEL-5 melanoma): > 100 µM
- TGI (SK-OV-3 ovarian): > 100 µM
- TGI (SN12C renal): > 100 µM
- TGI (SNB-19 CNS): > 100 µM
- TGI (SNB-75 CNS): > 100 µM
- TGI (SNB-78 CNS): > 100 µM
- TGI (SR leukemia): > 100 µM
- TGI (SW-620 colon): > 100 µM
- TGI (U251 CNS): > 100 µM
- TGI (UACC-257 melanoma): > 100 µM
- TGI (UACC-62 melanoma): > 100 µM
- TGI (UO-31 renal): > 100 µM
- TGI (XF 498 CNS): > 100 µM
